Reference: patent publication US10590113B2, “6-hydroxy-4-oxo-1,4-dihydropyrimidine-5-carboxamides as APJ agonists” (priority 2016, dated 2020)

target: T1, human APJ receptor (Homo sapiens, UniProt P35414); assay: Intracellular cAMP Accumulation Assay (APJ hcAMP, HTRF); format: cell-based; details: human APJ, cAMP accumulation; potency range class; read-out: hAPJ cAMP EC50 Potency range
T1 construct: expressed in transfected cells; host or cells: HEK293
T1 sequence (P35414 1-380): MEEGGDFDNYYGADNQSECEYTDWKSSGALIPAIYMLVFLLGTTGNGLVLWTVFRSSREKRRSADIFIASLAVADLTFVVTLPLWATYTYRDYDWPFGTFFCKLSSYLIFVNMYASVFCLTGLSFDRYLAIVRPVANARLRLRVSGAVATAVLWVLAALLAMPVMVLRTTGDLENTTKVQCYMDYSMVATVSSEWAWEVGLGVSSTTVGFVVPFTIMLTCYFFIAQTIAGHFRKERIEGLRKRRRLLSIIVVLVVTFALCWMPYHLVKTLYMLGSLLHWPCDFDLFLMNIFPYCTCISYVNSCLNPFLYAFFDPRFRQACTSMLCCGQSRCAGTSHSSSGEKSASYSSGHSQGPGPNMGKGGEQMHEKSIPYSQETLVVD
Summary of the method: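 Stably transfected HEK293 cells (5,000/well) incubated 30 min at room temperature with serially diluted compound, […] and 2 μM forskolin. cAMP measured by HTRF after 60 min with detection reagents, quantified against a cAMP standard curve; EC50 from variable-slope sigmoidal fit of inhibition of forskolin-stimulated cAMP.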

EC50 [nM]	SMILES
0.01 to 10	CCn1ccc(-c2nc(=O)c(C(=O)N3CC[C@H](c4ccccc4)C3)c(O)n2-c2cccc(C(C)C)c2)n1 [Example 291, 2-(1-ethyl-1H-pyrazol-3-yl)-6-hydroxy-5-[(3R)-3-phenylpyrrolidine-1-carbonyl]-1-[3-(propan-2-yl)phenyl]-1,4-dihydropyrimidin-4-one]
0.01 to 10	COc1cccc(OC)c1-n1c(-c2ccc(F)c(C)c2)nc(=O)c(C(=O)N2CCC(c3ncc(F)cc3F)C2)c1O (single isomer, unassigned) [Example 256, 5-[3-(3,5-difluoropyridin-2-yl)pyrrolidine-1-carbonyl]-1-(2,6-dimethoxyphenyl)-2-(4-fluoro-3-methylphenyl)-6-hydroxy-1,4-dihydropyrimidin-4-one]
0.01 to 10	CCn1ccc(-c2nc(=O)c(C(=O)N3CCC(c4c(F)cccc4F)C3)c(O)n2-c2c(OC)cccc2OC)n1 (single isomer, unassigned) [Example 276, 5-[3-(2,6-difluorophenyl)pyrrolidine-1-carbonyl]-1-(2,6-dimethoxyphenyl)-2-(1-ethyl-1H-pyrazol-3-yl)-6-hydroxy-1,4-dihydropyrimidin-4-one]
0.01 to 10	CCCCc1nc(=O)c(C(=O)N2CCC(c3ncc(Cl)cc3F)C2)c(O)n1-c1c(OC)cccc1OC (single isomer, unassigned) [Example 356, 2-butyl-5-(3-(5-chloro-3-fluoropyridin-2-yl)pyrrolidine-1-carbonyl)-1-(2,6-dimethoxyphenyl)-6-hydroxypyrimidin-4(1H)-one]
0.01 to 10	CCc1cccc(CC)c1-n1c(-c2cnn(CC)c2)nc(=O)c(C(=O)N2CCC(c3ncc(F)cc3F)C2)c1O (single isomer, unassigned) [Example 315, 1-(2,6-diethylphenyl)-5-[3-(3,5-difluoropyridin-2-yl)pyrrolidine-1-carbonyl]-2-(1-ethyl-1H-pyrazol-4-yl)-6-hydroxy-1,4-dihydropyrimidin-4-one]
0.01 to 10	COc1ccnc(-c2nc(=O)c(C(=O)N3CCC(c4ccc(F)cc4F)C3)c(O)n2-c2c(OC)cccc2OC)c1 (single isomer, unassigned) [Example 278, 5-[3-(2,4-difluorophenyl)pyrrolidine-1-carbonyl]-1-(2,6-dimethoxyphenyl)-6-hydroxy-2-(4-methoxypyridin-2-yl)-1,4-dihydropyrimidin-4-one]
0.01 to 10	COc1cccc(OC)c1-n1c(-c2nc(C)cs2)nc(=O)c(C(=O)N2CCC(c3c(F)cccc3F)C2)c1O (single isomer, unassigned) [Example 271, 5-[3-(2,6-difluorophenyl)pyrrolidine-1-carbonyl]-1-(2,6-dimethoxyphenyl)-6-hydroxy-2-(4-methyl-1,3-thiazol-2-yl)-1,4-dihydropyrimidin-4-one]
0.01 to 10	CCOCc1nc(=O)c(C(=O)N2CCC(c3c(F)cccc3F)C2)c(O)n1-c1c(OC)cccc1OC (single isomer, unassigned) [Example 353, 5-[3-(2,6-difluorophenyl)pyrrolidine-1-carbonyl]-1-(2,6-dimethoxyphenyl)-2-(ethoxymethyl)-6-hydroxy-1,4-dihydropyrimidin-4-one]
0.01 to 10	COc1cccc(OC)c1-n1c(-c2cccc(C)c2)nc(=O)c(C(=O)N2CCC(c3ncc(Cl)cc3F)C2)c1O (single isomer, unassigned) [Example 263, 5-[3-(5-chloro-3-fluoropyridin-2-yl)pyrrolidine-1-carbonyl]-1-(2,6-dimethoxyphenyl)-6-hydroxy-2-(3-methylphenyl)-1,4-dihydropyrimidin-4-one]
0.01 to 10	COc1cccc(OC)c1-n1c(-c2cncc(Cl)c2)nc(=O)c(C(=O)N2CCC(c3c(F)cccc3F)C2)c1O (single isomer, unassigned) [Example 247, 2-(5-chloropyridin-3-yl)-5-[3-(2,6-difluorophenyl)pyrrolidine-1-carbonyl]-1-(2,6-dimethoxyphenyl)-6-hydroxy-1,4-dihydropyrimidin-4-one]
0.01 to 10	CCCCc1nc(=O)c(C(=O)N2CCC(c3ccccc3C#N)C2)c(O)n1-c1c(OC)cccc1OC (single isomer, unassigned) [Example 364, 2-(1-(2-butyl-1-(2,6-dimethoxyphenyl)-6-hydroxy-4-oxo-1,4-dihydropyrimidine-5-carbonyl)pyrrolidin-3-yl)benzonitrile]
0.01 to 10	CCc1cccc(CC)c1-n1c(-c2csc(C(C)C)n2)nc(=O)c(C(=O)N2CCC(c3ccc(F)cn3)C2)c1O (single isomer, unassigned) [Example 300, 1-(2,6-diethylphenyl)-5-[3-(5-fluoropyridin-2-yl)pyrrolidine-1-carbonyl]-6-hydroxy-2-[2-(propan-2-yl)-1,3-thiazol-4-yl]-1,4-dihydropyrimidin-4-one]
100 to 300	CCc1cccc(CC)c1-n1c(COC(C)C)nc(O)c(C(=O)N2CCC(c3ccc(Cl)nc3)CC2)c1=O [Example 222, 5-[4-(6-chloropyridin-3-yl)piperidine-1-carbonyl]-3-(2,6-diethylphenyl)-6-hydroxy-2-[(propan-2-yloxy)methyl]-3,4-dihydropyrimidin-4-one]

same assay, conditions: human APJ, intracellular cAMP accumulation; read-out: hAPJ cAMP EC50 Potency range

EC50 [nM]	SMILES
0.01 to 10	COc1cccc(OC)c1-n1c(COC(C)C)nc(=O)c(C(=O)N2CCC(c3c(F)cccc3F)C2)c1O (single isomer, unassigned) [Example 164, 5-[3-(2,6-difluorophenyl)pyrrolidine-1-carbonyl]-1-(2,6-dimethoxyphenyl)-6-hydroxy-2-[(propan-2-yloxy)methyl]-1,4-dihydropyrimidin-4-one]
0.01 to 10	CC[C@@H](c1cc(F)cc(F)c1)n1c(-c2ccn(CC)n2)nc(=O)c(C(=O)N2CCC(c3ncccc3F)C2)c1O (single isomer, unassigned) [Example 212]
0.01 to 10	COc1cccc(OC)c1-n1c(COC(C)C)nc(=O)c(C(=O)N2CCC(c3c(F)cccc3F)C2)c1O (single isomer, unassigned) [Example 166, 5-[3-(2,6-difluorophenyl)pyrrolidine-1-carbonyl]-1-(2,6-dimethoxyphenyl)-6-hydroxy-2-[(propan-2-yloxy)methyl]-1,4-dihydropyrimidin-4-one]
0.01 to 10	COc1cccc(OC)c1-n1c(CCC2CC2)nc(=O)c(C(=O)N2CCC(c3ncc(Cl)cc3F)C2)c1O (single isomer, unassigned) [Example 176, 5-[3-(5-chloro-3-fluoropyridin-2-yl)pyrrolidine-1-carbonyl]-2-(2-cyclopropylethyl)-1-(2,6-dimethoxyphenyl)-6-hydroxy-1,4-dihydropyrimidin-4-one]
10 to 100	CCCCc1nc(=O)c(C(=O)N2CC[C@@H](c3ccccc3)C2)c(O)n1[C@@H](C)c1cccc(C#N)c1 [Example 149, 3-[(1S)-1-{2-butyl-4-hydroxy-6-oxo-5-[(3S)-3-phenylpyrrolidine-1-carbonyl]-1,6-dihydropyrimidin-1-yl}ethyl]benzonitrile]
0.01 to 10	CCOCc1nc(=O)c(C(=O)N2CCC(c3ccccn3)C2)c(O)n1-c1c(OC)cccc1OC (single isomer, unassigned) [Example 55, 1-(2,6-dimethoxyphenyl)-2-(ethoxymethyl)-6-hydroxy-5-[3-(pyridin-2-yl)pyrrolidine-1-carbonyl]-1,4-dihydropyrimidin-4-one]
0.01 to 10	CCCCc1nc(=O)c(C(=O)N2CC[C@H](c3ccccc3)C2)c(O)n1[C@H](C)c1ccccc1 [Example 117, 2-butyl-6-hydroxy-3-[(1R)-1-phenylethyl]-5-[(3R)-3-phenylpyrrolidine-1-carbonyl]-3,4-dihydropyrimidin-4-one]
0.01 to 10	COc1cccc(OC)c1-n1c(CCC2CC2)nc(=O)c(C(=O)N2CCC(c3ncc(F)cc3F)C2)c1O (single isomer, unassigned) [Example 169, 2-(2-cyclopropylethyl)-5-[3-(3,5-difluoropyridin-2-yl)pyrrolidine-1-carbonyl]-1-(2,6-dimethoxyphenyl)-6-hydroxy-1,4-dihydropyrimidin-4-one]
0.01 to 10	CC[C@@H](c1cc(F)cc(F)c1)n1c(-c2ccn(C)n2)nc(=O)c(C(=O)N2CCC(c3ccc(F)cn3)C2)c1O (single isomer, unassigned) [Example 185]

same assay, conditions: read-out: hAPJ cAMP EC50 Potency range

EC50 [nM]	SMILES
0.01 to 10	CCCCc1nc(=O)c(C(=O)N2CCC(Oc3ccccc3Cl)CC2)c(O)n1-c1c(OC)cccc1OC [Example 382, 2-butyl-5-(4-(2-chlorophenoxy)piperidine-1-carbonyl)-1-(2,6-dimethoxyphenyl)-6-hydroxypyrimidin-4(1H)-one]
0.01 to 10	CCCCc1nc(=O)c(C(=O)N2CCN(Cc3cccc(F)c3F)CC2)c(O)n1-c1c(OC)cccc1OC [Example 388, 2-butyl-5-(4-(2,3-difluorobenzyl)piperazine-1-carbonyl)-1-(2,6-dimethoxyphenyl)-6-hydroxypyrimidin-4(1H)-one]

same assay, conditions: read-out: hAPJ cAMP EC50 Potency range; human APJ, intracellular cAMP accumulation

EC50 [nM]	SMILES
0.01 to 10	CCCCc1nc(=O)c(C(=O)N2CCC(c3ccncc3)C2)c(O)n1-c1c(OC)cccc1OC (single isomer, unassigned) [Example 48, 2-butyl-1-(2,6-dimethoxyphenyl)-6-hydroxy-5-[3-(pyridin-4-yl)pyrrolidine-1-carbonyl]-1,4-dihydropyrimidin-4-one]
